Assay results reported in ChEMBL document CHEMBL1201862, “PubChem BioAssay data set” (2004).
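A five-concentration, 48-hour dose response in 96-well plates underlies each endpoint, interpolated linearly between surrounding concentrations. GI50 marks 50% less growth.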 The source made the active and inactive calls. No stated cut-off is given here; in the data, active = GI50 up to about 1.1 µM and inactive = higher.

Columns and labels:
Assay in all cases: DTP human tumour cell line panel, 48 h
[1] = tested on: A498
[2] = tested on: SK-MEL-28
[3] = tested on: MDA-N
[4] = tested on: HCC 2998
[5] = tested on: HCT-15
[6] = tested on: ACHN
[7] = tested on: NCI-H522
[8] = tested on: DU-145
[9] = tested on: CCRF-CEM
[10] = tested on: NCI/ADR-RES
[11] = tested on: EKVX
[12] = tested on: UACC-257
[13] = tested on: NCI-H226
[14] = tested on: HCT-116
[15] = tested on: SF-539
[16] = tested on: Hs-578T
[17] = tested on: MDA-MB-231
[18] = tested on: TK-10
[19] = tested on: RXF 393
[20] = tested on: SF-295

Row | SMILES | GI50 [1] | GI50 [2] | GI50 [3] | GI50 [4] | GI50 [5] [µM] | GI50 [6] | GI50 [7] | GI50 [8] | GI50 [9] | GI50 [10] | GI50 [11] | GI50 [12] | GI50 [13] | GI50 [14] | GI50 [15] | GI50 [16] | GI50 [17] | GI50 [18] | GI50 [19] | GI50 [20]
1 | O=C(NCCCN1CCN(CCCNC(=O)c2cc(-c3ccccc3)nc3ccccc23)CC1)c1cc(-c2ccccc2)nc2ccccc12 | 33.9 µM (inactive) | 2.05 µM (inactive) | 5.64 µM (inactive) | 2.88 µM (inactive) | 19.4 | 15.4 µM (inactive) | 14 µM (inactive) | 29.8 µM (inactive) | 11.6 µM (inactive) | 24.1 µM (inactive) | 21.5 µM (inactive) | 2.29 µM (inactive) | 27.7 µM (inactive) | 23.4 µM (inactive) | 15.2 µM (inactive) | 13.2 µM (inactive) | 26.1 µM (inactive) | 27.3 µM (inactive) | > 30.9 µM (inactive) | 12.3 µM (inactive)
2 | COc1cc2oc(-c3ccc4c(c3)OCO4)c(OC)c(=O)c2c(O)c1OC | > 50 µM (inactive) | > 50 µM (inactive) | > 50 µM (inactive) | > 50 µM (inactive) | > 50 | > 50 µM (inactive) | > 50 µM (inactive) | > 50 µM (inactive) | > 50 µM (inactive) | > 50 µM (inactive) | > 50 µM (inactive) | > 50 µM (inactive) | > 50 µM (inactive) | > 50 µM (inactive) | > 50 µM (inactive) | > 50 µM (inactive) | 45.4 µM (inactive) | > 50 µM (inactive) | > 50 µM (inactive) | 43.8 µM (inactive)
3 | COc1ccccc1NC1=NCC(C)S1 (stereo not given) | > 100 µM (inactive) | > 100 µM (inactive) | > 100 µM (inactive) | > 100 µM (inactive) | > 100 | > 100 µM (inactive) | > 100 µM (inactive) | > 100 µM (inactive) | > 100 µM (inactive) | > 100 µM (inactive) | > 100 µM (inactive) | > 100 µM (inactive) | > 100 µM (inactive) | > 100 µM (inactive) | > 100 µM (inactive) | > 100 µM (inactive) | > 100 µM (inactive) | > 100 µM (inactive) | 33.8 µM (inactive) | > 100 µM (inactive)
4 | CC1(C)CCCCCCC2OC2CCCCCC(C)(C)C1=O (stereo not given) | > 84.9 µM (inactive) | 65.2 µM (inactive) | 35.8 µM (inactive) | 40.6 µM (inactive) | > 89.5 | 30.8 µM (inactive) | 22.1 µM (inactive) | > 71.1 µM (inactive) | 28.2 µM (inactive) | 25.9 µM (inactive) | 60.1 µM (inactive) | 30.7 µM (inactive) | > 56.4 µM (inactive) | 35.8 µM (inactive) | > 94.8 µM (inactive) | 45.1 µM (inactive) | 29.9 µM (inactive) | > 100 µM (inactive) | 20.1 µM (inactive) | 31.2 µM (inactive)
5 | Cc1n[nH]c(=O)n1/N=C/c1ccncc1 | > 100 µM (inactive) | > 100 µM (inactive) | > 100 µM (inactive) | > 100 µM (inactive) | > 100 | > 100 µM (inactive) | > 100 µM (inactive) | > 100 µM (inactive) | > 100 µM (inactive) | > 100 µM (inactive) | > 100 µM (inactive) | > 100 µM (inactive) | > 100 µM (inactive) | > 100 µM (inactive) | > 100 µM (inactive) | > 100 µM (inactive) | > 100 µM (inactive) | > 100 µM (inactive) | > 100 µM (inactive) | > 100 µM (inactive)
6 | Cn1c2ccccc2c(=O)c2c(O)cc3c(c21)C=CC1(CCCCC1)O3 | > 10 µM (inactive) | > 10 µM (inactive) | > 10 µM (inactive) | > 10 µM (inactive) | > 10 | > 10 µM (inactive) | > 10 µM (inactive) | > 10 µM (inactive) | > 10 µM (inactive) | > 10 µM (inactive) | 8.41 µM (inactive) | > 10 µM (inactive) | 5.89 µM (inactive) | > 10 µM (inactive) | > 10 µM (inactive) | 9.06 µM (inactive) | > 10 µM (inactive) | > 10 µM (inactive) | > 10 µM (inactive) | > 10 µM (inactive)
7 | CC(C)SC1SCC2C(=O)N(C)C3(CC3C)C(=O)OCC(NC(=O)c3nc4ccccc4cc3O)C(=O)NC(C)C(=O)N(C)C1C(=O)N(C)C1(CC1C)C(=O)OCC(NC(=O)c1nc3ccccc3cc1O)C(=O)NC(C)C(=O)N2C (stereo not given) | < 0.0001 µM (active) | < 0.0001 µM (active) | < 0.0001 µM (active) | < 0.0001 µM (active) | < 0.0001 | < 0.0001 µM (active) | < 0.0001 µM (active) | < 0.0001 µM (active) | < 0.0001 µM (active) | 0.00446 µM (active) | 0.00298 µM (active) | < 0.0001 µM (active) | < 0.0001 µM (active) | < 0.0001 µM (active) | < 0.0001 µM (active) | < 0.0001 µM (active) | < 0.0001 µM (active) | < 0.0001 µM (active) | < 0.0001 µM (active) | < 0.0001 µM (active)
8 | COC1Cc2c(C)c(OC(C)=O)c3cccnc3c2O1 (stereo not given) | > 100 µM (inactive) | 24.7 µM (inactive) | 20.8 µM (inactive) | > 100 µM (inactive) | 10.4 | 7.11 µM (inactive) | 2.75 µM (inactive) | 17.3 µM (inactive) | 10.7 µM (inactive) | 17.6 µM (inactive) | 15.4 µM (inactive) | 16 µM (inactive) | 39 µM (inactive) | 34.9 µM (inactive) | 48.2 µM (inactive) | 30.3 µM (inactive) | > 100 µM (inactive) | > 100 µM (inactive) | 14.9 µM (inactive) | 32.4 µM (inactive)
9 | CCOC(=O)N1CCN(c2nc(C)n(-c3ccccc3)c(=S)c2C#N)CC1 | > 100 µM (inactive) | 61 µM (inactive) | > 50 µM (inactive) | > 100 µM (inactive) | > 55.6 | > 65 µM (inactive) | > 34.9 µM (inactive) | > 90.4 µM (inactive) | > 23.4 µM (inactive) | 30 µM (inactive) | > 82.2 µM (inactive) | > 86.9 µM (inactive) | > 61.8 µM (inactive) | > 68.2 µM (inactive) | > 83.4 µM (inactive) | 34.3 µM (inactive) | 23.4 µM (inactive) | > 81.1 µM (inactive) | > 95.9 µM (inactive) | > 66.4 µM (inactive)
10 | OC1(c2ccc(Cl)cc2)c2ccccc2-c2nc3ccccc3n21 (stereo not given) | > 100 µM (inactive) | > 100 µM (inactive) | > 100 µM (inactive) | 74 µM (inactive) | > 100 | > 100 µM (inactive) | 66.8 µM (inactive) | 79.4 µM (inactive) | > 100 µM (inactive) | 67.1 µM (inactive) | 84.7 µM (inactive) | > 100 µM (inactive) | 45.9 µM (inactive) | 90.4 µM (inactive) | > 100 µM (inactive) | > 100 µM (inactive) | > 100 µM (inactive) | > 100 µM (inactive) | 29.2 µM (inactive) | 97.9 µM (inactive)
